In patent publication US20190038575A1, “Methods for Protecting Cells During Cancer Therapy” (Applied Biology, Inc., priority 2017, published 2019):

Legend:
[1] = tested on: postjunctional alpha1-adrenoceptors; details: Brown 1988; cited from earlier work
[2] = tested on: postjunctional alpha2-adrenoceptors; details: Brown 1988; cited from earlier work
A1AR [3] = details: weak A1AR agonist; Brown 1988; cited from earlier work
A1AR [4] = details: Ma 2010, Hibino 2009; cited from earlier work
[5] = Safety study: topical application to entire scalp with BP, HR and EKG holter monitoring; type: in vivo, human; details: topical application across the entire scalp, synephrine at up to 6 g
Method: Use of weak acting A1AR agonists or agonists having a low affinity for all other adrenergic receptors, as described herein, can provide methods of treatment and/or prophylaxis that are a substantial improvement over conventional methods of use. Improvements can include enhancements in efficacy and/or safety. For example, safety tests were performed with embodiments of the composition using electrocardiogram (EKG) and blood pressure/heart rate (BP/HR) monitoring. […] Details of the study are described in the examples below.
A study was conducted to determine the safety of a topical solution containing 37% synephrine HCl (the composition of formula 01). 10 mL of the topical solution was applied to the entire scalp and rubbed thoroughly at a base line. An additional 10 mL was applied after 2 hours. Blood pressure (BP), heart rate (HR) and EKG measurements were taken using a wearable holter monitor.
In total, 40 female subjects ages 18-65 in good health were enrolled. 30 of the subjects received the active solution and 10 received the placebo (vehicle only). To evaluate the effect of the composition on systemic hemodynamic parameters, a holter monitor was placed on each subject. At baseline, BP and HR were recorded. BP, HR, and EKG data were collected over a 24-hour period via the holter monitor. […] EKG parameters (e.g., ST segments, arrhythmias, etc.) were normal throughout the 24 hour period.

[6] = oral form; Stohs 2011; cited from earlier work

Compound | potency of the (+) form relative to the (−) form [1] | potency of the (+) form relative to the (−) form [2] | potency less than that of phenylephrine (A1AR [3]) | A1AR binding affinity (A1AR [4]) | adverse events (EKG and BP/HR monitoring) [5] | cardiac or hemodynamic changes [6]
CNC[C@@H](O)c1ccc(O)cc1 [S-(+)-synephrine] | one to two orders of magnitude less | one to two orders of magnitude less | – | – | – | –
CNCC(O)c1ccc(O)cc1 (stereo not drawn) [synephrine, p-synephrine] | – | – | approximately 150 fold | low | No adverse events | not been shown to induce significant cardiac or hemodynamic changes
